Four compounds from patent publication US11598051B2, “Method for manufacturing a fibrous web” (Kemira Oyj, priority 2017, dated 2023) can be followed below.

A value given as a limit tells only on which side of the number the result lay.

Assay [1] concerns aerobic bacterial spores. The experiment in a line: Example 1 laboratory broke test: aerobic bacterial spores by agar plate cultivation. The format is cell-based, bacteria. The following applies: for Bacterial spores: 10 mg/l as total active chlorine, +45° C. The protocol: (§1) This laboratory test compared efficacy of two oxidizing biocides, namely free active chlorine and stabilized active chlorine, in killing of vegetative bacterial cells and in controlling of bacterial spore formation. Test was performed with authentic bacterial population of a broke sample taken from couch pit of a board machine making 3-ply food-packaging board. Broke sample was divided in equal proportions. Two reference samples were stored as such, the “free active chlorine” sample was treated with sodium hypochlorite, and the “stabilized active chlorine” sample was treated with sodium hypochlorite stabilized by 5,5-dimethylhydantoin (mixed in 1:1 molar ratio to form monochloro-5,5-dimethylhydantoin, MCDMH). Both forms of active chlorine were dosed at 10 ppm (=mg/l as total active chlorine Cl2). Broke samples were stored at +45° C. without mixing. Total aerobic bacteria and aerobic bacterial spores were quantified by using conventional agar plate cultivation methods (Plate Count Agar, incubation at +37° C. for 2 days) at the beginning of the test (untreated reference samples) and after 1 and 2 days of contact time. Broke pH and Redox (mV) values were also monitored.

In assay [2] the test system is aerobic bacterial spores. The experiment in a line: Example 3 board machine biocide programs: aerobic bacterial spores from process locations. Details: species or system bacteria. The conditions noted are these: for ΔSpore content within the broke system: difference between inlet and outlet. The text has this:
(§2) This example compares technical performance of two different biocide programs in the broke system of a 3-ply board machine producing food-packaging board. Broke system is a part of the wet-end of the board making process. This board machine has set a hygiene target for the final board that it should contain aerobic bacterial spores less than 1000 CFU, and preferably less than 250 CFU, per gram of dry board.
(§3) In this experiment, for the first period (Days 1-10) the machine was running a biocide program consisting of stabilized active chlorine (MCDMH) and glutaraldehyde. For the second period, the machine was running chlorine dioxide, a non-stabilized oxidizer, as the biocide. It was running for 10 days starting from a shutdown (Days 15-25). Third period (Days 26-47) was run with the same MCDMH and glutaraldehyde program as the first period. During this experiment technical performance of the two different biocide programs was monitored at selected dates by several means: on-line Redox monitoring system collecting Redox values at every 10 minutes (results are shown as daily average mV values); measuring aerobic spore content of the final board samples; and by measuring aerobic bacterial spore quantities from different process locations by using agar plate cultivation methods (pasteurization at 82° C. for 20 min, followed by cultivation on Plate Count Agar for 2 days at +37° C.).

The subject of assay [3] is Total aerobic bacteria (authentic bacterial population of a broke sample). The experiment in a line: Example 1 laboratory broke test: total aerobic bacteria by agar plate cultivation. Type of assay: cell-based. The conditions noted are these: for Total aerobic bacteria: 10 mg/l as total active chlorine, +45° C. The method, then:
as §1

Assay [4] deals with aerobic bacterial spores. Put plainly: Example 3 board machine biocide programs: aerobic spore content of final board. The arrangement: species or system bacteria.
Excerpt: as §2, §3

Another assay deals with aerobic spores. The experiment in a line: Example 2 laboratory broke storage test: aerobic spore content by agar plate cultivation. The format is cell-based, bacteria. The protocol: (§4) This laboratory test was performed with broke sample taken from an alkaline board machine producing 3-ply food-packaging board and the sample included the mill's authentic bacterial population in it. The sample was divided in two different containers, one stored as such and the second one amended with biocide, 50 mg/l of glutaraldehyde as active agent. Containers were closed and stored at +45° C. without mixing i.e. under conditions that simulate situation in broke storage tower during a machine shutdown. Total aerobic bacteria and aerobic spore contents were determined by using conventional agar plate cultivation methods (plate count agar, 2 days incubation at +37° C.) at the beginning of the test and after 3 days of storage time, along with pH and redox measurements.

Assay [5] deals with Total aerobic bacteria (mill's authentic bacterial population). Put plainly: Example 2 laboratory broke storage test: total aerobic bacteria by agar plate cultivation. The format is cell-based. The method, then:
as §4

Setting [6] is: Day 15, second period (Days 15-25).
Setting [7] is: Day 19, second period (Days 15-25).
The mark [8] stands for this setting: Day 25, second period (Days 15-25).
The mark [9] stands for this setting: broke, 50 mg/l as active agent, +45° C., closed, after 3 days storage time.

Regarding `CC1(C)NC(=O)N(Cl)C1=O` [MCDMH, monochloro-5,5-dimethylhydantoin], the “spore formation in the broke” value in the assay on aerobic bacterial spores [1] (10 mg/l as active chlorine, 2 days experiment) is “did not cause any new spore formation”. Also, in the assay on aerobic bacterial spores [1] (10 mg/l as active chlorine, during the 2 days experiment), the spore counts is on record as 30-60 CPU/ml. Also, the Bacterial spores is 30 CFU/ml in the assay with aerobic bacterial spores [1] (1 days storage time) and 60 CFU/ml in the assay with aerobic bacterial spores [1] (2 days storage time). For the same compound, the “spores in incoming pulp” value with aerobic bacterial spores [2] (first period (Days 1-10)) is 30-80 CFU/ml. For the same compound, the “spores in pulp transportation water” value with aerobic bacterial spores [2] (first period (Days 1-10)) is 15 CFU/ml. Also, in assay [3] (10 mg/l as active chlorine, after 1 day of storage), the “stronger reduction of total aerobic bacteria content compared to free chlorine” value was 1 log unit. The Total aerobic bacteria is listed as 6×10^4 CFU/ml in assay [3] (broke, 1 days storage time) and 2 × 10^7 CFU/ml in assay [3] (broke, 2 days storage time).
As for `[O][Cl+][O-]` [chlorine dioxide], the “Aerobic Bacterial Spores in process, High consistency (4-6 w/w-%) broke tower” value in the assay on aerobic bacterial spores [2] (setting [6]) is listed as 440 CFU/ml; in the assay on aerobic bacterial spores [2] (setting [7]) it was 1100 CFU/ml; in the assay on aerobic bacterial spores [2] (setting [8]), 950 CFU/ml. Further, the “Aerobic Bacterial Spores in process, Incoming Pulp” value in the assay with aerobic bacterial spores [2] (setting [6]) worked out at 20 CFU/ml; in the assay on aerobic bacterial spores [2] (setting [7]), 60 CFU/ml. Besides, the “Aerobic Bacterial Spores in process, Low consistency (1-4 w/w-%) broke tower” value in the assay on aerobic bacterial spores [2] (setting [6]) is recorded as 250 CFU/ml; in the assay with aerobic bacterial spores [2] (setting [7]) it was 610 CFU/ml; in the assay with aerobic bacterial spores [2] (setting [8]) it was 850 CFU/ml. The “ΔSpore content within the broke system” value is “+190 CFU/ml” with aerobic bacterial spores [2] (Day 15, second period); “+490 CFU/ml” with aerobic bacterial spores [2] (Day 19, second period); “+100 CFU/ml” in the assay on aerobic bacterial spores [2] (Day 25, second period). Also, the “spore formation in the broke system” value in the assay with aerobic bacterial spores [2] (second period (Days 15-25)) was “triggered intensive spore formation”. The “spore quantities in the high consistency broke tower” value with aerobic bacterial spores [2] (second period (Days 15-25), maximum) is on record as “up to 1100 CFU/ml”. The “Bacterial Spores in Final Board” value with aerobic bacterial spores [4] (setting [6]) worked out at 520 CFU/g; in the assay on aerobic bacterial spores [4] (setting [7]), 5530 CFU/g; in the assay on aerobic bacterial spores [4] (Day 21, second period (Days 15-25)), 9580 CFU/g; in the assay with aerobic bacterial spores [4] (setting [8]) it was 3210 CFU/g. In addition, the “spore content in the final board, highest value” in the assay with aerobic bacterial spores [4] (second period (Days 15-25)) is on record as not above 9580 CFU/g.
Regarding `O=CCCCC=O` [glutaraldehyde], the “spore formation in the broke sample” value with aerobic spores (50 mg/l, 3 days of storage) was “not triggering any spore formation”. The compound also returned a Bacterial spores in the assay on aerobic spores (setting [9]) of 80 CFU/ml. Besides, the “killing effect” value in assay [5] (50 mg/l, 3 days of storage) was “did not have a long-lasting killing effect”. The “total aerobic bacteria relative to the untreated reference” value in assay [5] (50 mg/l, after 3 days of storage) worked out at 40%. Also, the Total aerobic bacteria in assay [5] (setting [9]) was 2×10^7 CFU/ml.
As to `[Na+].[O-]Cl` [Na-hypochlorite, sodium hypochlorite], the Bacterial spores with aerobic bacterial spores [1] (1 days storage time) was found to be 60 CFU/ml; in the assay with aerobic bacterial spores [1] (2 days storage time) it was 670 CFU/ml. Further, the “increase in the quantity of aerobic spores” value in the assay with aerobic bacterial spores [1] (10 ppm, 1 day to 2 days storage (60 to 670 CFU/ml)) amounted to 10 fold. For the same compound, the Total aerobic bacteria was 4 × 10^5 CFU/ml in assay [3] (broke, 1 days storage time) and 2 × 10^7 CFU/ml in assay [3] (broke, 2 days storage time). The “killing effect” value in assay [3] (broke, 10 ppm dosing level) is “did not demonstrate any longer-term killing effect”. The “total aerobic bacteria content” value in assay [3] (broke, 10 ppm, after 1 day of storage) is reported as 4×10^5 CPU/ml.
